Experimental data: patent US8063088B2 (Hoffmann-La Roche Inc., priority 2008, dated 2011)

How the values were obtained:
human LXR beta = target: T1, human LXR beta (Homo sapiens, UniProt P55055); assay: Radioligand binding assay (SPA), LXR beta LBD; details: radioligand displacement, LXR beta-LBD on SPA beads; read-out: LXRbeta Binding IC50
T1 construct: human LXR beta (aa 155 to 460); unspecified tag ('tagged versions'); made in house; host or cells: E. coli BL21 (pLysS)
T1 sequence (P55055 155-460): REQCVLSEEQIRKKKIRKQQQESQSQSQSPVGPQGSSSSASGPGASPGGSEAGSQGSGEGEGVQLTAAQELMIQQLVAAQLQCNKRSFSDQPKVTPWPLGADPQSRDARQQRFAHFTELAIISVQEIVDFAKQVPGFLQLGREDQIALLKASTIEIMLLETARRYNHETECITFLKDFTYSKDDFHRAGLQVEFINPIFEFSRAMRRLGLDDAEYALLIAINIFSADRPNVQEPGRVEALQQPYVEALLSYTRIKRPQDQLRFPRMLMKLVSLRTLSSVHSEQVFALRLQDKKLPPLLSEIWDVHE
Procedure: (§1) The following tests were carried out in order to determine the activity of the compounds of the present invention. Background information on the performed assays can be found in: Nichols J S et al. “Development of a scintillation proximity assay for peroxisome proliferator-activated receptor gamma ligand binding domain”, Anal Biochem. 1998, 257: 112-119.
(§2) Mammalian expression vectors were constructed to express full-length human LXR alpha and LXR beta. Bacterial expression vectors were constructed to produce tagged versions of the ligand binding domains (LBD) of human LXR alpha (aa 164 to 447) and human LXR beta (aa 155 to 460). To accomplish this, the portions of the sequences encoding the LBDs were amplified from the full-length clones by PCR and then subcloned into the plasmid vectors. Final clones were verified by DNA sequence analysis (Willy et al., Genes Dev. 1995, 9:1033-45; Song et al., Proc Natl Acad Sci USA. 1994, 91:10809-13).
(§3) Induction, expression, and purification of LBD proteins were performed in E. coli strain BL21 (pLysS) cells by standard methods (Ref: Current Protocols in Molecular Biology, Wiley Press, edited by Ausubel et al).
(§4) Radioligand Binding Assay
(§5) LXR alpha and LXR beta receptor binding were assayed in buffer consisting of 50 mM HEPES, pH 7.4, 10 mM NaCl, 5 mM MgCl2. For each 96-well reaction, 500 ng of LXRα-LBD or 700 ng of LXR beta-LBD proteins were bound to 80 μg or 40 μg SPA beads respectively, in a final volume of 50 μl by shaking. The resulting slurry was incubated for 1 h at RT and centrifuged for 2 min at 1300×g. The supernatant containing unbound protein was removed, and the semi-dry pellet containing the receptor-coated beads was re-suspended in 50 μl of buffer. Radioligand (eg. 100,000 dpm of (N-(2,2,2-trifluoroethyl)-N-[4-(2,2,2-trifluoro-1-hydroxy-1-trifluoromethylethyl)-phenyl]-benzenesulfonamide)) was added, and the reaction incubated at RT for 1 h in the presence of test compounds, and then scintillation proximity counting was performed. All binding assays were performed in 96-well plates and the amount of bound ligand was measured on a Packard TopCount using OptiPlates (Packard). Dose response curves were measured within a range of concentration from 10^−10 M to 10^−4 M.

human LXR alpha = target: T2, human LXR alpha (Homo sapiens, UniProt Q13133); assay: Radioligand binding assay (SPA), LXR alpha LBD; details: radioligand displacement, LXRα-LBD on SPA beads; read-out: LXRalpha Binding IC50
T2 construct: human LXR alpha (aa 164 to 447); unspecified tag ('tagged versions'); made in house; host or cells: E. coli BL21 (pLysS)
T2 sequence (Q13133 164-447): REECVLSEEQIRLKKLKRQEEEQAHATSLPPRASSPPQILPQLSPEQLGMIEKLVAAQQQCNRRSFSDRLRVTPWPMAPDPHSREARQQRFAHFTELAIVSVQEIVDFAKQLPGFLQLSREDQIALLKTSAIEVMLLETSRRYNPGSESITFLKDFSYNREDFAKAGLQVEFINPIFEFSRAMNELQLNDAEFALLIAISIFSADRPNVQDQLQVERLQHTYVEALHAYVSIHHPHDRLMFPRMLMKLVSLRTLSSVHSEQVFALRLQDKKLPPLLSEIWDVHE
Procedure: as §1, §2, §3, §4, §5

Row | Compound | IC50 (human LXR beta) [nM] | IC50 (human LXR alpha) [nM]
1 | Cc1cccc(-c2cccc([C@@H]3CN(C(=O)OC(C)(C)C)CC[C@H]3c3ccccc3)c2)c1 (relative stereo) [Example 44, trans-3-(3′-Methyl-biphenyl-3-yl)-4-phenyl-piperidine-1-carboxylic acid tert-butyl ester] | 5510 | 53700
2 | CS(=O)(=O)c1cccc(-c2cccc([C@@H]3CN(S(=O)(=O)c4ccccc4)CC[C@H]3c3ccccc3)c2)c1 (racemic) [Example 36, trans-1-Benzenesulfonyl-3-(3′-methanesulfonyl-biphenyl-3-yl)-4-phenyl-piperidine] | 25 | 70
3 | CC(C)(C)OC(=O)N1C[C@H](c2cccc(-c3cncc(S(C)(=O)=O)c3)c2)[C@H](c2ccccc2)CC1=O (relative stereo) [Example 46, cis-5-[3-(5-Methanesulfonyl-pyridin-3-yl)-phenyl]-2-oxo-4-phenyl-piperidine-1-carboxylic acid tert-butyl ester] | 385 | 8220
4 | Cc1ccc(Cl)cc1-c1cccc(C2CN(S(=O)(=O)c3ccccc3)C(=O)N2C(C)C)c1 (stereo not drawn) [Example 26, 1-Benzenesulfonyl-4-(5′-chloro-2′-methyl-biphenyl-3-yl)-3-isopropyl-imidazolidin-2-one] | 315 | 1990
5 | Cc1ccc(F)cc1-c1cccc(C2CN(S(=O)(=O)c3ccccc3)C(=O)N2C(C)C)c1 (stereo not drawn) [Example 22, 1-Benzenesulfonyl-4-(5′-fluoro-2′-methyl-biphenyl-3-yl)-3-isopropyl-imidazolidin-2-one] | 1360 | 4700
6 | CS(=O)(=O)c1cccc(-c2cccc(C3CN(S(=O)(=O)c4ccccc4)CCN3c3ccccc3)c2)c1 (stereo not drawn) [Example 34, 4-Benzenesulfonyl-2-(3′-methanesulfonyl-biphenyl-3-yl)-1-phenyl-piperazine] | 2 | 56
7 | Cc1oncc1S(=O)(=O)N1CC(c2cccc(-c3cccc(S(C)(=O)=O)c3)c2)N(C(C)C)C1=O (stereo not drawn) [Example 15, 3-Isopropyl-4-(3′-methanesulfonyl-biphenyl-3-yl)-1-(5-methyl-isoxazole-4-sulfonyl)-imidazolidin-2-one] | 160 | 2580
8 | Cc1ccccc1N1CCN(S(=O)(=O)c2ccccc2)CC1c1cccc(-c2cccc(S(C)(=O)=O)c2)c1 (stereo not drawn) [Example 50, 4-Benzenesulfonyl-2-(3′-methanesulfonyl-biphenyl-3-yl)-1-o-tolyl-piperazine] | 165 | 12300
9 | Cc1ccc(C)c(-c2cccc(C3CN(S(=O)(=O)c4ccccc4)C(=O)N3C(C)C)c2)c1 (stereo not drawn) [Example 31, 1-Benzenesulfonyl-4-(2′,5′-dimethyl-biphenyl-3-yl)-3-isopropyl-imidazolidin-2-one] | 165 | 815
10 | CC(C)N1C(=O)N(S(=O)(=O)c2ccccc2)CC1c1cccc(-c2cccc([N+](=O)[O-])c2)c1 (stereo not drawn) [Example 21, 1-Benzenesulfonyl-3-isopropyl-4-(3′-nitro-biphenyl-3-yl)-imidazolidin-2-one] | 155 | 2910
11 | CCS(=O)(=O)N1CC(c2cccc(-c3cccc(S(C)(=O)=O)c3)c2)N(C(C)C)C1=O (stereo not drawn) [Example 18, 1-Ethanesulfonyl-3-isopropyl-4-(3′-methanesulfonyl-biphenyl-3-yl)-imidazolidin-2-one] | 106 | 5010
12 | CS(=O)(=O)Nc1cccc(-c2cccc(C3CN(S(=O)(=O)c4ccccc4)C(=O)N3c3ccccc3)c2)c1 (stereo not drawn) [Example 8, N-[3′-(1-Benzenesulfonyl-2-oxo-3-phenyl-imidazolidin-4-yl)-biphenyl-3-yl]-methanesulfonamide] | 74.5 | 335
13 | CC(C)(C)OC(=O)N1CC[C@@H](c2ccccc2)[C@H](c2cccc(-c3cncc(S(C)(=O)=O)c3)c2)C1 (relative stereo) [Example 43, trans-3-[3-(5-Methanesulfonyl-pyridin-3-yl)-phenyl]-4-phenyl-piperidine-1-carboxylic acid tert-butyl ester] | 755 | 3980
14 | CC(C)N1C(=O)N(S(=O)(=O)c2ccccc2)CC1c1cccc(-c2cc(F)ccc2F)c1 (stereo not drawn) [Example 32, 1-Benzenesulfonyl-4-(2′,5′-difluoro-biphenyl-3-yl)-3-isopropyl-imidazolidin-2-one] | 99.5 | 950
15 | CS(=O)(=O)c1cccc(-c2cccc(C3CN(S(=O)(=O)c4ccccc4)C(=O)N3c3ccccc3)c2)c1 (stereo not drawn) [Example 7, 1-Benzenesulfonyl-4-(3′-methanesulfonyl-biphenyl-3-yl)-3-phenyl-imidazolidin-2-one] | 4 | 90
16 | Cc1ccc(C)c(-c2cccc(C3CN(C(=O)OC(C)(C)C)CCC3c3ccccc3)c2)c1 (stereo not drawn) [Example 40, trans-3-(2′,5′-Dimethyl-biphenyl-3-yl)-4-phenyl-piperidine-1-carboxylic add tert-butyl ester] | 19300 | 44100
17 | CC(C)N1C(=O)N(S(=O)(=O)c2ccccc2)CC1c1cccc(-c2ccc(CO)c(S(C)(=O)=O)c2)c1 (stereo not drawn) [Example 20, 1-Benzenesulfonyl-4-(4′-hydroxymethyl-3′-methanesulfonyl-biphenyl-3-yl)-3-isopropyl-imidazolidin-2-one] | 1 | 6

Continued by falling IC50 (human LXR beta), values first:

Row | IC50 (human LXR beta) [nM] | IC50 (human LXR alpha) [nM] | Compound
18 | 9030 | 5720 | O=C(O)c1cccc(-c2cccc(C3CN(S(=O)(=O)c4ccccc4)C(=O)N3c3ccccc3)c2)c1 (stereo not drawn) [Example 6, 3′-(1-Benzenesulfonyl-2-oxo-3-phenyl-imidazolidin-4-yl)-biphenyl-3-carboxylic acid]
19 | 8050 | 7970 | O=C(O)c1cccc(-c2ccc(C3CN(S(=O)(=O)c4ccccc4)C(=O)N3c3ccccc3)cc2)c1 (stereo not drawn) [Example 2, 4′-(1-Benzenesulfonyl-2-oxo-3-phenyl-imidazolidin-4-yl)-biphenyl-3-carboxylic acid]
20 | 5250 | 10200 | Cc1ccc(C)c(-c2ccc(C3CN(S(=O)(=O)c4ccccc4)C(=O)N3c3ccccc3)cc2)c1 (stereo not drawn) [Example 3, 1-Benzenesulfonyl-4-(2′,5′-dimethyl-biphenyl-4-yl)-3-phenyl-imidazolidin-2-one]
21 | 530 | 52700 | CS(=O)(=O)c1cccc(-c2cccc(C3CN(S(=O)(=O)c4ccccc4)CC(=O)N3c3ccccc3)c2)c1 (stereo not drawn) [Example 33, 4-Benzenesulfonyl-6-(3′-methanesulfonyl-biphenyl-3-yl)-1-phenyl-piperazin-2-one]
22 | 355 | 5530 | Cc1ccccc1N1CCN(C(=O)OC(C)(C)C)CC1c1cccc(-c2cccc(S(C)(=O)=O)c2)c1 (stereo not drawn) [Example 48, 3-(3′-Methanesulfonyl-biphenyl-3-yl)-4-o-tolyl-piperazine-1-carboxylic acid tert-butyl ester]
23 | 36 | 2490 | CC(C)N1C(=O)N(S(=O)(=O)C(C)C)CC1c1cccc(-c2cccc(S(C)(=O)=O)c2)c1 (stereo not drawn) [Example 13, 3-Isopropyl-4-(3′-methanesulfonyl-biphenyl-3-yl)-1-(propane-2-sulfonyl)-imidazolidin-2-one]
24 | 18 | 45 | CS(=O)(=O)c1cc(-c2ccc(C3CN(S(=O)(=O)c4ccccc4)C(=O)N3c3ccccc3)cc2)ccc1CO (stereo not drawn) [Example 19, 1-Benzenesulfonyl-4-(4′-hydroxymethyl-3′-methanesulfonyl-biphenyl-4-yl)-3-phenyl-imidazolidin-2-one]
